Measurements published in ChEMBL document CHEMBL6074718, “Discovery and biological evaluation of potent 2-trifluoromethyl acrylamide warhead-containing inhibitors of protein disulfide isomerase” (Eur J Med Chem, 2025).
The source made the active and inactive calls. No cut-off for these calls is given here.

What was measured:
[1] = biological target: T1, Protein disulfide-isomerase (Homo sapiens, UniProt P07237); assay: Inhibition of recombinant PDI (unknown origin) preincubated for 1 hrs followed by bovine insulin addition and measured after 80 mins by absorbance based reductase assay
Target sequence in this assay (P07237 whole entry): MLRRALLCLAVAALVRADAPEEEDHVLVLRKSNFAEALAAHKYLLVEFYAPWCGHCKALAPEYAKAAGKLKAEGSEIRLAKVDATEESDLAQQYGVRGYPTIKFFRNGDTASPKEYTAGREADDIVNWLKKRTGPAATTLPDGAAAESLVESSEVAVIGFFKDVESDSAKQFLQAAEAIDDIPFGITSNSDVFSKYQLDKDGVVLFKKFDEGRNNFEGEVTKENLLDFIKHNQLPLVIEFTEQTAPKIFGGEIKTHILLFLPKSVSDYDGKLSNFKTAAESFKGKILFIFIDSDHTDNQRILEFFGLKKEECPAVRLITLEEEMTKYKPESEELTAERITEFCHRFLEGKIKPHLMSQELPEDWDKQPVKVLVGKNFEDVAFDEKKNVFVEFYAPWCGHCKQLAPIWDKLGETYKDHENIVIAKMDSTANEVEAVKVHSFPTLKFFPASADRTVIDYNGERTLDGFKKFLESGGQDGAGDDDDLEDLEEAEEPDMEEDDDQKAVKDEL

[2] = tested on: Blood; assay: Antithrombotic activity in citrated-human whole blood assessed as reduction in coverage area of thrombi on collagen-coated chamber at 200 uM incubated for 10 mins in presence of DiOC6(3) by fluorescence microscopic analysis relative to control; assay type: functional; parameters: scale not given: the % may be the effect or the level left
[3] = Antiplatelet aggregation activity in human Platelet assessed as inhibition of collagen- induced aggregation preincubated for 3 mins followed by collagen addition by turbidimetric aggregometry
[4] = tested on: Platelet; assay: Antiplatelet aggregation activity in human Platelet assessed as inhibition of U46619- induced aggregation at 50 to 200 uM preincubated for 3 mins followed by U46619 addition by turbidimetric aggregometry; assay type: functional, cell-based; details: dose 50-200 µM
[5] = tested on: Platelet; assay: Antiplatelet aggregation activity in human Platelet assessed as inhibition of thrombin- induced aggregation at 50 to 200 uM preincubated for 3 mins followed by thrombin addition by turbidimetric aggregometry; assay type: functional, cell-based; details: dose 50-200 µM
[6] = tested on: Blood; assay: Antithrombotic activity in citrated-human whole blood assessed as reduction in coverage area of thrombi on collagen-coated chamber at 100 uM incubated for 10 mins in presence of DiOC6(3) by fluorescence microscopic analysis relative to control; assay type: functional; parameters: scale not given: the % may be the effect or the level left
[7] = biological target: T1, Protein disulfide-isomerase; assay: Irreversible inhibition of recombinant PDI (unknown origin) at 4 uM preincubated for 1 hrs and measured after 10 fold dilution by absorbance based analysis
Target sequence in this assay (P07237 18-508 limits assumed): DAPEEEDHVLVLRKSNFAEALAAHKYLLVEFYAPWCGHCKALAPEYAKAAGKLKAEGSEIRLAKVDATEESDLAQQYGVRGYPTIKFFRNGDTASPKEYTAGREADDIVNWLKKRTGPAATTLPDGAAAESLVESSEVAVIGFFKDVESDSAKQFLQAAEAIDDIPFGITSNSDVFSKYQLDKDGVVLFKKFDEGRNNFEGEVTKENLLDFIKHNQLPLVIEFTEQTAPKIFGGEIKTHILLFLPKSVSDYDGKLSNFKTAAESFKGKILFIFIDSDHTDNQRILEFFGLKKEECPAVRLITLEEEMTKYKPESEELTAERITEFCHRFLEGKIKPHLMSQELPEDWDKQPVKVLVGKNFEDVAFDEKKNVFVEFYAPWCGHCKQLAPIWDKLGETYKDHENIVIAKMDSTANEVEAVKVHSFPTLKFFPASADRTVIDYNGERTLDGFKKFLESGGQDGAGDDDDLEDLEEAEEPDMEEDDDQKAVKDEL

[8] = biological target: T2, Protein disulfide-isomerase A3 (Homo sapiens, UniProt P30101); assay: Inhibition of recombinant PDIA3 (unknown origin) preincubated for 1 hrs followed by bovine insulin addition and measured after 80 mins by absorbance based reductase assay
T2 sequence (P30101 whole entry): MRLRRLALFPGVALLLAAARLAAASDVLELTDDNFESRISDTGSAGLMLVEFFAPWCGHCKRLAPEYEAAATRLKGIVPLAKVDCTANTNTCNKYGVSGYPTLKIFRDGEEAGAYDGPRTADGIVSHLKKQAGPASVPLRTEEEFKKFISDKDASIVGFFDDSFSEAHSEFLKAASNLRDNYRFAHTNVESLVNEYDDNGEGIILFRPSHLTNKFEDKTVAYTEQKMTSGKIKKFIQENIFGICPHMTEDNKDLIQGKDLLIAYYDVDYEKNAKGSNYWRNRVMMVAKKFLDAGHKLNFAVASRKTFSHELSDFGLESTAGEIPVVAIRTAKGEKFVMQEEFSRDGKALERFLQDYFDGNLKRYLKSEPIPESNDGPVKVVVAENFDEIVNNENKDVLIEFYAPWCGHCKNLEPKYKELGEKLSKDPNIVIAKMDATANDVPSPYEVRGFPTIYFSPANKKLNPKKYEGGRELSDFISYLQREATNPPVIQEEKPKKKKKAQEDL

[9] = biological target: T3, Protein disulfide-isomerase A6 (Homo sapiens, UniProt Q15084); assay: Inhibition of recombinant PDIA6 (unknown origin) preincubated for 1 hrs followed by bovine insulin addition and measured after 80 mins by absorbance based reductase assay
T3 sequence (Q15084 whole entry): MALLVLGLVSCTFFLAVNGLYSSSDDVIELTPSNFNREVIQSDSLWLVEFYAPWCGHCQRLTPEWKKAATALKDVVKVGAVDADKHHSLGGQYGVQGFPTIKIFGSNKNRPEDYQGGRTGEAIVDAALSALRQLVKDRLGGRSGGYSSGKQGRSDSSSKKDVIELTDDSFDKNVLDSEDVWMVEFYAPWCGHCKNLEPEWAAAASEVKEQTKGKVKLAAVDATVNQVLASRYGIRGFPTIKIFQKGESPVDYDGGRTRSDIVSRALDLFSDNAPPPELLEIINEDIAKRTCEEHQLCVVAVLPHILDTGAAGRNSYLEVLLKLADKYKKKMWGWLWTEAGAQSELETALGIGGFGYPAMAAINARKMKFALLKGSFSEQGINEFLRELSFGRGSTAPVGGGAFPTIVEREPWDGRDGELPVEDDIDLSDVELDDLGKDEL

[10] = tested on: HUVEC; assay: Cytotoxicity against HUVEC cells assessed as reduction in cell viability at 5 to 40 uM incubated for 24 hrs by MTT assay; assay type: toxicity, cell-based; details: human, dose 5-40 µM
[11] = biological target: T1, Protein disulfide-isomerase; assay: Inhibition of PDI in human Platelet assessed as reduction in […] activation by measuring decrease in PAC-1 binding at 5 uM preincubated for 3 mins followed by U46619 addition and measured after 5 mins by flow cytometric analysis; assay type: cell-based; details: time 8.0 min
Target sequence in this assay (P07237 18-508 limits assumed): as the sequence (P07237 18-508 limits assumed) above

[12] = biological target: T1, Protein disulfide-isomerase; assay: Inhibition of recombinant PDI (unknown origin) at 0.2 uM preincubated for 1 hrs and measured after 10 fold dilution by absorbance based analysis
Target sequence in this assay (P07237 18-508 limits assumed): as the sequence (P07237 18-508 limits assumed) above

[13] = tested on: HepG2; assay: Antiproliferative activity against human HepG2 cells assessed as reduction in cell viability at 5 to 40 uM incubated for 24 hrs by MTT assay; assay type: functional, cell-based; details: dose 5-40 µM
[14] = tested on: A549; assay: Antiproliferative activity against human A549 cells assessed as reduction in cell viability at 5 to 40 uM incubated for 24 hrs by MTT assay; assay type: functional, cell-based; details: dose 5-40 µM
[15] = Antiplatelet aggregation activity in human Platelet assessed as reduction in U46619-induced secretion of p-selectin at 5 uM preincubated for 3 mins followed by U46619 addition and measured after 5 mins by flow cytometric analysis relative to control; assay type: functional; parameters: scale not given: the % may be the effect or the level left; details: time 8 min
[16] = Antiplatelet aggregation activity in human Platelet assessed as inhibition of thrombin- induced aggregation preincubated for 3 mins followed by thrombin addition by turbidimetric aggregometry
[17] = Antiplatelet aggregation activity in human Platelet assessed as inhibition of U46619- induced aggregation preincubated for 3 mins followed by U46619 addition by turbidimetric aggregometry
[18] = tested on: Blood; assay: Antithrombotic activity in citrated-human whole blood assessed as reduction in coverage area of thrombi on collagen-coated chamber at 5 uM incubated for 10 mins in presence of DiOC6(3) by fluorescence microscopic analysis relative to control; assay type: functional; parameters: scale not given: the % may be the effect or the level left
[19] = tested on: MDA-MB-231; assay: Antiproliferative activity against human MDA-MB-231 cells assessed as reduction in cell viability at 5 to 40 uM incubated for 24 hrs by MTT assay; assay type: functional, cell-based; details: dose 5-40 µM

Compound | IC50 [1] [µM] | other results
C=C(C(=O)Nc1ccc(N(CC)CC)cc1)C(F)(F)F | 0.84 | –
C=C(C(=O)Nc1ccc2c(c1)OCO2)C(F)(F)F | 2.91 | –
CC(=O)Oc1ccccc1C(=O)O [ASPIRIN] | – | Activity [2]: 46%; IC50 [3]: 74.5 µM; Activity [4]: inactive; Activity [5]: inactive; Activity [6]: 21%
C=C(C(=O)Nc1ccc(OCc2ccccc2)c(OC)c1)C(F)(F)F | 0.81 | –
C=C(C(=O)Nc1ccc(C(F)(F)F)cc1)C(F)(F)F | 0.68 | –
C=C(C(=O)Nc1ccc(OC)c(OC)c1)C(F)(F)F | 3 | –
COC(=O)/C=C/C(=O)Nc1cc(OC)c(OC)cc1C(=O)OC | > 40 | –
COC(=O)c1cc(OC)c(OC)cc1NC(=O)C12CC1C2 (stereo not given) | > 40 | –
COC(=O)c1cc(OC)c(OC)cc1NC(=O)C1CO1 (stereo not given) | > 40 | –
C=CS(=O)(=O)Nc1cc(OC)c(OC)cc1C(=O)OC | 19.1 | –
C=C(C(=O)Nc1ccc(Cc2ccccc2)cc1)C(F)(F)F | 0.56 | –
C=CC(=O)Nc1cc(OC)c(OC)cc1C(=O)OC | > 40 | –
C=C(C(=O)Nc1ccc(CN2CCOCC2)cc1)C(F)(F)F | 1.21 | –
C=CS(=O)(=O)Oc1cc(OC)c(OC)cc1C(=O)OC | 1.1 | –
C#CC(=O)N(c1ccc(OC)c(OC)c1)C(C(=O)NCC(=O)OCC)c1cccs1 (stereo not given) | 12.4 | inhibition [7]: Active; IC50 [8]: 28.1 µM; IC50 [9]: > 40 µM
C=C(C(=O)Nc1ccc(OCCC)c(OC)c1)C(F)(F)F | 1.23 | –
COC(=O)c1cc(OC)c(OC)cc1NC(=O)CCl | > 40 | –
C=C(F)C(=O)Nc1cc(OC)c(OC)cc1C(=O)OC | > 40 | –
C=C(C(=O)Nc1ccc(C(=O)c2ccccc2)cc1)C(F)(F)F | 0.48 | Activity [10]: Non-toxic; inhibition [11]: Active; IC50 [3]: 13 µM; inhibition [12]: Not active; Compound Exhibited Reversible Binding Mode With Pdi; Activity [13]: inactive; Activity [14]: inactive; IC50 [8]: 1.52 µM; Activity [15]: 52%; IC50 [16]: 25.5 µM; IC50 [17]: 3.5 µM; IC50 [9]: 7.1 µM; Activity [18]: 36%; Activity [19]: inactive
C=C(C(=O)Nc1ccc(-c2ccccc2)cc1)C(F)(F)F | 1.63 | –
C=C(C(=O)Nc1cc(OC)c(OC)c(OC)c1)C(F)(F)F | 0.58 | –
C=C(C(=O)Nc1ccc(OCC)c(OC)c1)C(F)(F)F | 1.62 | –
C=C(C(=O)Nc1cc(OC)c(OC)cc1C(=O)OC)C(F)(F)F | 2.2 | –
C#CC(=O)Nc1cc(OC)c(OC)cc1C(=O)OC | 1.6 | –
C=C(C(=O)Nc1ccc(C(C)(C)C)cc1)C(F)(F)F | 0.87 | –
